Source: US20130005759A1, “SMALL MOLECULE MODIFIERS OF MICRORNA MIR-122” (North Carolina State University, priority 2010, published 2013)

Columns and labels:
HepG2 cells = assay: CellTiter-Glo cell viability in HepG2 cells; format: cell-based; details: HepG2, 10 μM, 48 hours
Huh7 cells = assay: CellTiter-Glo cell viability in Huh7 cells; format: cell-based, human; details: Huh7, exposure to compound
Excerpt: (§1) This enhanced caspase activity led to a reduced cell viability of ˜20% (CellTiter-Glo, Promega) (FIGS. 8A and B), exceeding previously reported reductions in cell viability due to lentiviral over-expression of miR-122 in HepG2 cells.^13 An increased caspase 3/7 level is observed in HepG2 cells due to activation of the pro-apoptic miR-122 (FIG. 8A). This increase is more pronounced in HepG2 than Huh7 cells, due to the different basal miR-122 levels in both cell lines. […] Thus, a small molecule activator of miR-122, like compound 3, has therapeutic relevance towards the selective treatment of HCC.
HepG2 and Huh7 cells were passaged into a 96-well plate and grown to 60% confluency. The media was then removed and replaced with standard growth media supplemented with increasing concentrations of the miR-122 small molecule modifiers (0-20 μM; 1% final DMSO concentration) and incubated for 48 hours at 37° C. Cellular viability was then assessed using a Cell-Titer Glo Assay (Promega) according to the manufacturers directions and luminescence was measured using a Wallac VICTOR^3V luminometer with a measurement time of 1 s and a delay time of 2 s.

miR-122 [1] = assay: psiCHECK-miR122 dual luciferase reporter assay in Huh7 cells; format: cell-based, human
Excerpt: A miRNA small molecule modifier screen for miR-122 was developed based on the psiCHECK-2 (Promega) reporter plasmid (FIG. 9). This construct expresses both Renilla luciferase as well as firefly luciferase, allowing for the normalization of the signal to account for differential cellular viability and variability in transfection efficiency. The miR-122 target sequence was inserted downstream of the Renilla luciferase gene, between the PmeI and SgfI restriction sites. In another aspect of the invention, plasmids expressing luciferase or another reporter gene such as for example, fluorescent reporters (GFP and variants thereof, DsRed, etc.) or beta-galactosidase can be used to screen for small molecule modifiers of miR-122. The mi-122 target sequence may be upstream or downstream of the reporter gene. Multiple miR-122 target sites can also be inserted into or be present in the plasmid.
The presence of mature miR-122 will lead to a decrease in the Renilla luciferase signal (FIG. 1a). The ability to detect endogenous miR-122 was validated by transfecting the generated psiCHECK-miR122 construct into Huh7 and HeLa cells. After 48 hour incubation, the cells were assayed using a Dual Luciferase Assay Kit (Promega). In another embodiment, the cells can be incubated for about 24-96 hours. The Dual Luciferase Assay Kit provides a means to measure the amount of the luciferases by generating a luminescent signal. Using this assay the luminescence from the firefly luciferase reaction may be quenched while the luminescent reaction of Renilla luciferase can be activated. Other assays and procedures that can determine the amount of the one or more reporter genes or miR-122 expression, activity or function can be used. An example of another assay is Dual-Glo Assay (Promega).
The psiCHECK-miR122 vector was then employed in a small molecule screen in Huh7 cells to discover modifiers of miR-122 function. Other cells that express miR-122 such as HepG2 and Hep3B can be used in addition to or instead of Huh7 cells. An increase in the relative Renilla luciferase signal indicates a miR-122 inhibitor, while a reduction in the luciferase signal indicates a miR-122 activator. A genus of compounds that may have activity as modifiers of miR122 function are the Diversity Set II (1364 compounds) from the NCI Developmental Therapeutics Program was screened using Huh7 cells containing the psiCHECK-miR122 reporter. Cells were exposed to the small molecules and the relative luciferase signal was measured after 48 hours using a Dual Luciferase Assay Kit (Promega). In another embodiment the cells can be exposed to the small molecules for about 24-96 hours. As explained above, other assays and procedures that can determine the amount of the one or more reporter genes or miR-122 expression, activity or function can be used.
The analogs were screened for activity using the previously described miR-122 assay. All cells were treated with 10 μM of a compound and experiments were performed in triplicate to ensure statistical validity. The data was normalized to a 1% DMSO control and is reported in relative luciferase units (RLU). The standard deviation was calculated from three independent assays. Some analogs of miR-122 inhibitor compound 1 are:
Huh7 and HeLa cells were transfected at approximately 60% confluency with either the psiCHECK-Control plasmid (the original psiCHECK-2 plasmid containing no known miRNA binding site) or the psiCHECK-miR122 plasmid (0.5 μg) using X-tremGENE transfection reagent (3:2 reagent/DNA ratio; Roche) in Opti-Mem media (Invitrogen). All transfections were performed in triplicate for statistical analysis. The cells were incubated at 37° C. for 4 hours followed by the replacement of transfection media with standard DMEM growth media. After 48 hours of incubation the media was removed, cells were lysed and assayed with a Dual Luciferase Assay Kit (Promega) using a Wallac VICTOR^3V luminometer with a measurement time of 1 s and a delay time of 2 s. […]

miR-122 [2] = assay: quantitative RT PCR of mature miR-122 in Huh7 cells; format: cell-based, human; details: Huh7, 10 μM, 48 hours
Description: The activity of the small molecule modifiers was analyzed by quantitative RT PCR in order to measure their direct effects on miR-122 expression levels in Huh7 cells. […] All experiments were conducted in triplicate, and the data was normalized to a DMSO control.
Each treatment was conducted in triplicate to ensure statistical validity. Cells were then incubated at 37° C. for 48 hours (DMEM, 5% CO2). The media was removed, and cells were washed with PBS buffer (2×2 mL, pH 7.4) followed by RNA isolation with the mirPremier™ microRNA Isolation Kit (Aldrich). The RNA was quantified using a Nanodrop ND-1000 spectrophotometer and 10 ng of each RNA sample was reverse transcribed using the TaqMan™ microRNA Reverse Transcription Kit (Applied Biosystems) in conjunction with either the miR-122 or miR-21 TaqMan™ RT primer (16° C., 30 min; 42° C., 30 min; 85° C., 5 min). Quantitative Real Time PCR was conducted with a TaqMan™ 2× Universal PCR Master Mix and the appropriate TaqMan™ miRNA assay (Applied Biosystems) on a BioRad MyiQ RT-PCR thermocycler (1.3 μL RT PCR product; 95° C., 10 min; followed by 40 cycles of 95° C., 15 s; 60° C. 60 s). Threshold cycles were used to determine miRNA copy numbers, and the levels of miR-122 and miR-21 were compared via determination of threshold cycle (Ct) and conversion to copy number (copy number=10[(Ct−37.4)/−3.3]).^17 The data was then normalized to the DMSO control. The samples were also analyzed by real time PCR for the presence of pri-miR-122 transcript using the previously described primers (5′ […] 3′ (SEQ ID NO:5) and 5′ […] 3′ (SEQ ID NO:6); IDT DNA) and iQ SYBR Green Supermix for the real time PCR (95° C., 3 min; followed by 40 cycles of 95° C., 15 s; 60° C. 60 s).^14

miR-21 = miR-21 luciferase reporter assay in HeLa-miR-21-Luc cells; format: cell-based; details: 10 μM, 48 hours
Description: Using the previously described HeLa-miR-21-Luc cell line (a stably transfected line harboring a miR-21 binding sequence in the 3′ UTR of a firefly luciferase gene),(9) cells were grown to 80% confluency (DMEM) and treated with either DMSO, the previously reported miR-21 inhibitor, or compounds 1 and 2 at 10 μM (1% DMSO final concentration). The cells were incubated for 48 hours at 37° C. (5% CO2) and then assayed with a Bright-Glo Luciferase Kit (Promega) and analyzed using a Wallac VICTOR^3V luminometer with a measurement time of 1 s and a delay time of 2 s (FIG. 4).

caspase-3 and -7 = assay: Caspase-Glo 3/7 assay in HepG2 cells; format: cell-based; details: HepG2, 10 μM, 48 hours
Excerpt: as §1
Both HepG2 and Huh7 cells were passaged into a 96-well plate and grown to 70% confluency. The media was then removed and replaced with standard growth media supplemented with 3 (10 μM) or a DMSO control (1% final DMSO concentration in all wells) and incubated for 48 hours at 37° C. All incubations were conducted in triplicate to ensure statistical validity. The media was removed and cells were assayed with the Caspase-Glo 3/7 (Promega) kit according to the manufacturers directions and luminescence was measured using a Wallac VICTOR^3V luminometer with a measurement time of 1 s and a delay time of 2 s.

## CN(C)CCN1C(=O)c2cccc3cc(N)cc(c23)C1=O [Compound 3]
HepG2 cells
  reduced cell viability: ~20%
Huh7 cells
  cell viability (in words): only slightly affected
miR-122 [1]; Homo sapiens, Huh-7, Huh7, calculated from FIG. 5, read-out: IC50 (miR-122 activator, luciferase dose response)
  IC50: 370 ± 20 nM
miR-122 [1]; Huh7, psiCHECK-miR122, 10 μM
  reduction of the Renilla luciferase signal: 7 fold
miR-122 [1]; Huh7, psiCHECK-miR122, 10 μM, mean ± SD of three independent assays
  relative luciferase units (RLU) normalized to a DMSO control: 0.11±0.02 RLU
miR-122 [2]
  increase in miR-122 expression levels: 438%
miR-21
  activity in miRNA-21 reporter (luciferase signal): No effect
caspase-3 and -7
  increase in the activity of caspase-3 and -7: ~20 fold
